Each structure is given as a SMILES string. pIC50: −log10 of the molar value.

The test system of series [1] is Rattus norvegicus. The experiment in a line: Antiinflammatory activity in Wistar rat assessed as inhibition of cotton pellet-induced granuloma at 75 mg/kg, po administered daily for 7 days and measured on day 8 relative to control. It is filed as functional.
Series [2] relates to Mus musculus. The experiment in a line: Antiinflammatory activity in Swiss mouse assessed as inhibition of TPA-induced ear edema at 1 mg/ear applied topically and measured 4 hrs post-TPA challenge relative to control. It is filed as functional.
Series [3] has as its system Rattus norvegicus. The experiment in a line: Antiinflammatory activity in po dosed Wistar rat assessed as reduction in carrageenan-induced paw edema pretreated for 1 hr followed by carrageenan challenge and measured over 2 to 4 hrs post carrageenan challenge by plethysmography. Type of series: functional.
In series [4] the test system is Rattus norvegicus. In words: Antiinflammatory activity in Wistar rat model of Freund's adjuvant-induced arthritis assessed as inhibition of arthritis by measuring reduction in paw volume at 75 mg/kg, po administered once daily for 8 days starting from day 7 post Freund's adjuvant treatment and measured after 18 days by mercury plethysmography relative to control. It is filed as functional.

For series [5], the system named is HepG2. The experiment in a line: Antiproliferative activity against human HepG2 cells by MTT assay. It is filed as functional, cell-based.
The test system of series [6] is MCF7. In words: Antiproliferative activity against human MCF7 by MTT assay. It is filed as functional, cell-based. (Formazan colour is commonly taken as a measure of viable cells.)
Series [7] deals with Rattus norvegicus. In words: Anti-ulcer activity in Wistar albino rat assessed as reduction in pylorus ligation induced ulcer at 250 mg/kg, ip pretreated for 1 hr followed by pylorus ligation and measured at 4 hrs post ligation. Type of series: functional.
The nature of series [8]: Ulcerogenic activity in Wistar albino rat assessed as ulcer index at 250 mg/kg, ip pretreated for 1 hr followed by pylorus ligation and measured at 4 hrs post ligation. Type of series: toxicity, organism-based. The conditions noted are these: in vivo.
The subject of series [9] is Rattus norvegicus. In words: Antiinflammatory activity in Sprague-Dawley rat assessed as protection against carrageenan-induced edema at 40 mg/kg, po pretreated for 1 hr followed by carrageenan challenge and measured after 3 hrs by mercury plethysmometer relative to control. It is filed as functional.
The subject of a further series is Escherichia coli. In words: Antibacterial activity against Escherichia coli assessed as zone inhibition at 500 ug/ml by cup plate agar diffusion method. The conditions noted are these: read-out: IZ. Type of series: functional.
The subject of another series is Pseudomonas aeruginosa. In words: Antibacterial activity against Pseudomonas aeruginosa assessed as zone inhibition at 500 ug/ml by cup plate agar diffusion method. Type of series: functional. The conditions noted are these: read-out: IZ. (In general: In agar diffusion tests the substance spreads into inoculated agar from a disc or well.)
In the next series the test system is Staphylococcus aureus. In words: Antibacterial activity against Staphylococcus aureus assessed as zone inhibition at 500 ug/ml by cup plate agar diffusion method. Type of series: functional. The conditions noted are these: read-out: IZ.
The next series concerns Bacillus subtilis. The experiment in a line: Antibacterial activity against Bacillus subtilis assessed as zone inhibition at 500 ug/ml by cup plate agar diffusion method. It is filed as functional. Conditions: read-out: IZ.
The subject of another series is Candida albicans. The experiment in a line: […] activity against Candida albicans assessed as zone inhibition at 500 ug/ml by cup plate agar diffusion method. The conditions noted are these: read-out: IZ. Type of series: functional.
Series [10] has as its system MCF7. The experiment in a line: Antiproliferative activity against human MCF7 after 24 hrs by MTT assay. It is filed as functional, cell-based. Conditions: MCF7, 24 h.
Another series has as its system HeLa. In words: Antiproliferative activity against human HeLa after 24 hrs by MTT assay. Type of series: functional, cell-based.
The nature of series [11]: Ulcerogenic activity in Sprague-Dawley rat assessed as ulcer index at 20 mg/kg, ip pretreated followed by pylorus ligation and measured at 4 hrs post ligation. Conditions: in vivo. It is filed as toxicity, organism-based.
The subject of series [12] is Mus musculus. In words: Analgesic activity in Swiss albino mouse assessed as protection against acetic acid-induced writhing at 15 mg/kg, po pretreated for 30 mins followed by acetic acid challenge and measured after 20 mins relative to control. Type of series: functional.
For another series, the system named is HEp-2. The experiment in a line: Antiproliferative activity against human Hep2 after 24 hrs by MTT assay. Type of series: functional, cell-based. The conditions noted are these: HEp-2, 24 h.
The subject of the next series is PC-3. In words: Antiproliferative activity against human PC3 after 24 hrs by MTT assay. Type of series: functional, cell-based. Conditions: PC-3, 24 h.
Series [13] has as its system HepG2. The experiment in a line: Antiproliferative activity against human HepG2 after 24 hrs by MTT assay. It is filed as functional, cell-based. Conditions: HepG2, 24 h.

Turning to `CC(=O)NN1C(S)=Nc2sc3c(c2C1c1ccccc1)CCCC3` (stereo not given), the inhibition in vivo (usually the share of the control response that was lost under treatment) at 75 mg/kg with Rattus norvegicus [1] was 39.9%; with Rattus norvegicus [4] it was 28.9%. Besides, the “inhibition (INH)” value in the series with Mus musculus [2] worked out at 35.1%. Moreover, the ED50 (commonly the midpoint of the dose-response relation) in the series with Rattus norvegicus [3] is 66.7 mg/kg.

On to `COc1ccccc1CNc1nc(C(F)(F)F)nc2sc3c(c12)CCC3`, for which the pIC50 in the series on HepG2 [5] and in the series on MCF7 [6] was less than 4.00 each time.

For the compound `C[C@]12CC[C@H]3[C@@H](CC=C4CC(O)CC[C@@]43C)[C@@H]1CC[C@@H]2c1csc(N)c1C(=O)NN` (stereo not given in full), the inhibition in vivo at 250 mg/kg in the series on Rattus norvegicus [7] was 82.7%. Besides, in series [8], the UI is recorded as 0.62. Besides, the Activity in the series with Rattus norvegicus [9] was 87%.

As to `C[C@]12CC[C@H]3[C@@H](CC=C4CC(O)CC[C@@]43C)[C@@H]1CC[C@@H]2c1csc(N)c1C(=O)NNC(=S)Nc1ccccc1` (stereo not given in full), the inhibition in vivo at 250 mg/kg with Rattus norvegicus [7] turned out to be 41.4%. The UI in [8] is listed as 2.11. For the same compound, in the series with Rattus norvegicus [9], the Activity worked out at 81%.

With `FC(F)(F)c1ccc(C2=Nc3ccccc3SC(c3cc4cncnc4s3)C2)cc1` (stereo not given), the zone of inhibition at 500 µg/mL in the series on Escherichia coli turned out to be 16.2 mm; in the series with Pseudomonas aeruginosa, 16.1 mm; in the series with Staphylococcus aureus, 17 mm; in the series with Bacillus subtilis it was 18.8 mm; with Candida albicans it was 16 mm.

`Cc1ccccc1CNc1nc(C(F)(F)F)nc2sc3c(c12)CCC3`: the pIC50 (usually −log10 of the IC50, conventionally taken in molar units) in the series with HepG2 [5] was less than 4.00; with MCF7 [6] it was 4.08.

In the case of `CC(C)Cc1ccc(C(C)C(=O)O)cc1` (stereo not given) [IBUPROFEN], in the series with Rattus norvegicus [1], the inhibition in vivo at 75 mg/kg turned out to be 44.6%. Moreover, the “inhibition (INH)” value in the series with Mus musculus [2] is recorded as 40.2%. The ED50 in the series on Rattus norvegicus [3] stood at 19.7 mg/kg.

Take `COc1ccc(NC(=O)c2sc3nc(N4CCOCC4)nc(-c4ccccc4)c3c2N)cc1`: the pIC50 is 4.56 in the series with MCF7 [10] and 4.21 in the series with HeLa.

Turning to `CSC1=[N+](N)C(c2ccccc2)c2c(sc3c2CCCC3)N1.[I-]` (stereo not given), the inhibition in vivo at 75 mg/kg came to 29.9% with Rattus norvegicus [1] and 10% with Rattus norvegicus [4]. Besides, the “inhibition (INH)” value in the series with Mus musculus [2] is 20.8%. Besides, the ED50 in the series with Rattus norvegicus [3] stood at 72.5 mg/kg.

`C[C@]12CC[C@H]3[C@@H](CC=C4CC(O)CC[C@@]43C)[C@@H]1CC[C@@H]2C1=CSC2N=CN(N)C(=O)C12` (stereo not given in full): in the series with Rattus norvegicus [7], the inhibition in vivo at 250 mg/kg was 71.7%. For the same compound, the UI in series [8] was found to be 1.02. The Activity in the series on Rattus norvegicus [9] is reported as 24%.

For `FC(F)(F)c1nc(NCc2ccc(Cl)cc2)c2c3c(sc2n1)CCC3`, the figures for the pIC50 in the series with HepG2 [5] and in the series on MCF7 [6] were 5.06 and 4.86, respectively.

For `CC(=C(C#N)C(=O)NN)[C@H]1CC[C@H]2[C@@H]3CC=C4CC(O)CC[C@]4(C)[C@H]3CC[C@]12C` (stereo not given in full), the inhibition in vivo at 250 mg/kg in the series on Rattus norvegicus [7] was determined as 41.4%. In series [8], the UI is given as 2.11. For the same compound, the Activity in the series on Rattus norvegicus [9] was 90%.

Take `CC(=O)Oc1ccccc1C(=O)O` [ASPIRIN]: the inhibition in vivo at 75 mg/kg is 30.1% in the series on Rattus norvegicus [1] and 40% with Rattus norvegicus [4]. Besides, the UI in series [11] lay in the range of 1.1 to 1.7. In the series on Mus musculus [2], the “inhibition (INH)” value was 20.1%. Further, the ED50 with Rattus norvegicus [3] came out at 69.3 mg/kg. Besides, the Activity in the series on Mus musculus [12] was determined as 53%.

`Nc1c(C(=O)Nc2ccc(I)cc2)sc2nc(N3CCOCC3)nc(-c3ccccc3)c12`: the pIC50 with MCF7 [10] was 4.37; in the series on HeLa it was 4.22.

Regarding `Nc1c(C(=O)Nc2ccccc2)sc2nc(N3CCOCC3)nc(-c3ccccc3)c12`, the results for the pIC50 with MCF7 [10] and in the series with HeLa were 4.28 and 4.39, respectively.

Regarding `Cc1c(C(=O)/C=C/c2cccs2)sc2nc(S)n(-c3ccccc3)c(=O)c12`, the pIC50 was 4.59 in the series with HEp-2; 4.73 in the series with PC-3; 4.62 with MCF7 [10]; 4.58 with HepG2 [13]; 4.81 in the series on HeLa.

Turning to `O=C(NN1C(S)=Nc2sc3c(c2C1c1ccccc1)CCCC3)c1ccccc1` (stereo not given), the inhibition in vivo at 75 mg/kg in the series on Rattus norvegicus [1] amounted to 41.8%; in the series on Rattus norvegicus [4], 25.6%. Further, in the series on Mus musculus [2], the “inhibition (INH)” value stood at 57.9%. The ED50 in the series on Rattus norvegicus [3] worked out at 62.7 mg/kg.

These data come from ChEMBL document CHEMBL4342407, “Thieno[2,3-d]pyrimidine as a promising scaffold in medicinal chemistry: Recent advances” (Bioorg Med Chem, 2019).
